Activity calls are given as the source filed them. The rule behind the calls is not given here.
How the values were obtained:
PubChem AID 493099 = details: NIH-3T3 viability with fluconazole, Alamar Blue, 48 h
[1] = test system: NIH-3T3 viability with fluconazole, Alamar Blue, 48 h; assay: PubChem AID 493099

COC(=O)Cn1nc(-c2ccc(C)cc2)c2ccccc21
activity change, negative = toxicity (PubChem AID 493099; at 26 µM (top of the series)): 0.677% (inactive)

Cc1ccnc(N2CCN(C(=O)c3ccc(Cl)cc3)CC2)c1
activity change, negative = toxicity (PubChem AID 493099; at 26 µM (top of the series)): -11.8% (inactive)

O=C(Cn1c2ccccc2c2nc3n(c(=O)c21)CCCS3)c1ccc(F)cc1
activity change, negative = toxicity (PubChem AID 493099; at 26 µM (top of the series)): -8.47% (inactive)

CC1CCN(C(=O)Cn2c3ccc(F)cc3c3nc4n(c(=O)c32)CCCS4)CC1
activity change, negative = toxicity (PubChem AID 493099; at 26 µM (top of the series)): -15.8% (inactive)

CC1CCN(C(=O)Cn2c3ccccc3c3nc4n(c(=O)c32)CCCS4)CC1
activity change, negative = toxicity (PubChem AID 493099; at 26 µM (top of the series)): -25.8% (inactive)

CCOC(=O)c1nn(Cc2ccc(Cl)cc2)c2ccccc12
activity change, negative = toxicity (PubChem AID 493099; at 26 µM (top of the series)): -28.4% (inactive)

COC(=O)Cn1nc(-c2ccc(Cl)cc2)c2ccccc21
activity change, negative = toxicity (PubChem AID 493099; at 26 µM (top of the series)): -11% (inactive)

O=c1c2[nH]c3ccc(F)cc3c2nc2n1CCS2
activity change, negative = toxicity (PubChem AID 493099; at 26 µM (top of the series)): 7.11% (inactive)

COc1ccc2c(c1)c1nc3n(c(=O)c1n2CC(=O)N1CCC(C)CC1)CCS3
activity change, negative = toxicity (PubChem AID 493099; at 2.6 µM (top of the series)): 18.1% (inactive)

c1ccc(-c2n[nH]c3ccccc23)cc1
activity change, negative = toxicity (PubChem AID 493099; at 26 µM (top of the series)): -5.62% (inactive)

COC(=O)Cn1nc(-c2ccccc2)c2ccccc21
activity change, negative = toxicity (PubChem AID 493099; at 26 µM (top of the series)): -16.9% (inactive)

COc1ccc(C(=O)N2CCN(c3ccccn3)CC2)cc1
activity change, negative = toxicity (PubChem AID 493099; at 26 µM (top of the series)): -22.2% (inactive)

CCCNC(=O)Cn1nc(-c2ccccc2)c2ccccc21
activity change, negative = toxicity (PubChem AID 493099; at 26 µM (top of the series)): -5.82% (inactive)

COC(=O)Cn1nc(C)c2ccccc21
activity change, negative = toxicity (PubChem AID 493099; at 26 µM (top of the series)): -5.29% (inactive)

Cc1ccc(N2CCN(C(=O)c3ccc(Cl)cc3)CC2)nc1
AC50 [1]: > 26 µM (inactive)

Cc1cccc(N2CCN(C(=O)c3ccc(Cl)cc3)CC2)n1
activity change, negative = toxicity (PubChem AID 493099; at 26 µM (top of the series)): -19.6% (inactive)

Cc1nn(S(C)(=O)=O)c2ccccc12
activity change, negative = toxicity (PubChem AID 493099; at 26 µM (top of the series)): -23.9% (inactive)

COCCC(=O)N1CCN(c2ccccn2)CC1
activity change, negative = toxicity (PubChem AID 493099; at 26 µM (top of the series)): -16% (inactive)

O=C(c1ccc(Cl)cc1)N1CCN(c2ncccc2C(F)(F)F)CC1
activity change, negative = toxicity (PubChem AID 493099; at 26 µM (top of the series)): -21.5% (inactive)

N#Cc1ccc(N2CCN(C(=O)c3ccc(Cl)cc3)CC2)nc1
activity change, negative = toxicity (PubChem AID 493099; at 26 µM (top of the series)): -15.6% (inactive)

O=C(Cn1c2ccc(F)cc2c2nc3n(c(=O)c21)CCS3)N1CCCC1
activity change, negative = toxicity (PubChem AID 493099; at 26 µM (top of the series)): -34% (inactive)

O=C(O)c1c2ccccc2nn1Cc1ccc(Cl)cc1
activity change, negative = toxicity (PubChem AID 493099; at 26 µM (top of the series)): -7.54% (inactive)

CNC(=O)Cn1nc(-c2ccccc2)c2ccccc21
activity change, negative = toxicity (PubChem AID 493099; at 26 µM (top of the series)): -11.1% (inactive)

O=C(c1ccc(Cl)cc1)N1CCN(c2ccc(C(F)(F)F)cn2)CC1
activity change, negative = toxicity (PubChem AID 493099; at 26 µM (top of the series)): -6.38% (inactive)

CC1CCN(C(=O)Cn2c3ccccc3c3nc4n(c(=O)c32)CCS4)CC1
activity change, negative = toxicity (PubChem AID 493099; at 26 µM (top of the series)): -20.3% (inactive)

O=c1c2[nH]c3ccccc3c2nc2n1CCS2
activity change, negative = toxicity (PubChem AID 493099; at 26 µM (top of the series)): -21.3% (inactive)

N#Cc1ccc(C(=O)N2CCN(c3ccccn3)CC2)cc1
activity change, negative = toxicity (PubChem AID 493099; at 26 µM (top of the series)): 4.67% (inactive)

O=C(Cn1c2ccccc2c2nc3n(c(=O)c21)CCS3)NCCc1ccc(Cl)cc1
activity change, negative = toxicity (PubChem AID 493099; at 26 µM (top of the series)): -7.62% (inactive)

O=C(C1CCCCC1)N1CCN(c2ccccn2)CC1
activity change, negative = toxicity (PubChem AID 493099; at 26 µM (top of the series)): -19.3% (inactive)

COc1ccc2c(c1)c1nc3n(c(=O)c1n2CC(=O)N1CCC(Cc2ccccc2)CC1)CCS3
activity change, negative = toxicity (PubChem AID 493099; at 26 µM (top of the series)): -12% (inactive)

O=C(O)c1nn(Cc2ccc(Cl)cc2)c2ccccc12
activity change, negative = toxicity (PubChem AID 493099; at 26 µM (top of the series)): -9.65% (inactive)

N#Cc1cccnc1N1CCN(C(=O)c2ccc(Cl)cc2)CC1
activity change, negative = toxicity (PubChem AID 493099; at 26 µM (top of the series)): 6.33% (inactive)

CCCNC(=O)Cn1nc(-c2ccccc2)c2cc(Cl)ccc21
activity change, negative = toxicity (PubChem AID 493099; at 26 µM (top of the series)): -7.48% (inactive)

O=C(Cn1c2ccc(F)cc2c2nc3n(c(=O)c21)CCS3)N1CCCCCC1
activity change, negative = toxicity (PubChem AID 493099; at 26 µM (top of the series)): -19.1% (inactive)

O=C(Cn1nc(-c2ccccc2)c2ccccc21)N1CCc2ccccc2C1
activity change, negative = toxicity (PubChem AID 493099; at 26 µM (top of the series)): -10.2% (inactive)

CCOC(=O)c1c2ccccc2nn1Cc1ccc(Cl)cc1
activity change, negative = toxicity (PubChem AID 493099; at 26 µM (top of the series)): 3.93% (inactive)

COc1cccnc1N1CCN(C(=O)c2ccc(Cl)cc2)CC1
activity change, negative = toxicity (PubChem AID 493099; at 26 µM (top of the series)): -12.3% (inactive)

O=C(c1cccc(Cl)c1)N1CCN(c2ccccn2)CC1
activity change, negative = toxicity (PubChem AID 493099; at 26 µM (top of the series)): -24.6% (inactive)

O=C(c1ccccc1Cl)N1CCN(c2ccccn2)CC1
activity change, negative = toxicity (PubChem AID 493099; at 26 µM (top of the series)): -7.93% (inactive)

COC(=O)Cn1c(-c2ccccc2)nc2ccccc21
activity change, negative = toxicity (PubChem AID 493099; at 26 µM (top of the series)): -4.41% (inactive)

CCCCC(=O)N1CCN(c2ccccn2)CC1
activity change, negative = toxicity (PubChem AID 493099; at 26 µM (top of the series)): -7.03% (inactive)

O=C(Cn1nc(-c2ccccc2)c2cc(Cl)ccc21)N1CCOCC1
AC50 [1]: > 26 µM (inactive)

O=C(Cn1nc(C(=O)N2CCCCC2)c2ccccc21)N1CCOCC1
activity change, negative = toxicity (PubChem AID 493099; at 26 µM (top of the series)): -2.32% (inactive)

COc1ccc(NC(=O)Cn2c3ccccc3c3nc4n(c(=O)c32)CCS4)cc1
AC50 [1]: 6.04 µM

O=C(c1ccc(Cl)cc1)N1CCN(c2nc3ccccc3s2)CC1
activity change, negative = toxicity (PubChem AID 493099; at 26 µM (top of the series)): -24% (inactive)

Cc1ccc(C(=O)N2CCN(c3ccccn3)CC2)cc1
activity change, negative = toxicity (PubChem AID 493099; at 26 µM (top of the series)): 5.98% (inactive)

O=C(O)Cn1nc(-c2ccccc2)c2ccccc21
activity change, negative = toxicity (PubChem AID 493099; at 26 µM (top of the series)): -27.1% (inactive)

COC(=O)Cn1nc(-c2ccccc2)c2cc(Cl)ccc21
activity change, negative = toxicity (PubChem AID 493099; at 26 µM (top of the series)): -7.62% (inactive)

CC(C)C(=O)N1CCN(c2ccccn2)CC1
activity change, negative = toxicity (PubChem AID 493099; at 26 µM (top of the series)): 7.76% (inactive)

O=C(Cn1c2ccccc2c2nc3n(c(=O)c21)CCS3)N1CCCC1
activity change, negative = toxicity (PubChem AID 493099; at 26 µM (top of the series)): -17.5% (inactive) | AC50 [1]: 19.7 µM

O=C(Cn1c2ccccc2c2ccncc21)N1CCCCC1
activity change, negative = toxicity (PubChem AID 493099; at 26 µM (top of the series)): -31.2% (inactive)

CCN(CC)C(=O)Cn1c2ccccc2c2nc3n(c(=O)c21)CCS3
activity change, negative = toxicity (PubChem AID 493099; at 26 µM (top of the series)): -27% (inactive) | AC50 [1]: > 26 µM (inactive)

From PubChem BioAssay AID493099 (Broad Institute, 2011)
